The subject of assay [1] is RKO, HCT116, DLD1, Caco2, HT55 and SW1417 cells. The assay is described as follows: Western blot of cell cycle and apoptosis markers in colorectal cancer cells. The class given is cell-based, human. As to conditions: 1 μM LTX, 24 hours; MLL4 mutant vs WT cells. Here is the method: FIG. 5. MLL4 mutant colorectal cancer cells are selectively sensitive to lometrexol treatment. (A) 100 μL of 0.5×10^5 cells/mL cells were seeded in 96-well plates one day before treatment. Cells were treated with 0-30 μM lometrexol (LTX) with 3× fold dilution for 72 hours. CellTiter-Glo® luminescent cell viability assay was performed to determine the percentage of inhibition under these conditions. The line plot compares sensitivity difference of all cell lines tested. (B) RKO, HCT116, DLD1, Caco2, HT55 and SW1417 cells were treated with DMSO or 1 μM LTX for 24 hours and whole cell lysates were used for western blot against cell cycle (H3 Ser10-p, CDT1, CyclinB 1, Geminin, CyclinEl, CyclinA2, p-cdc2) and apoptosis (PARP, Caspase3) markers using Hsp90 and I3-tubulin as loading control. […] (F) A subset of representative terms from the full cluster were selected and converted into a network layout. Each term is represented by a circle node, where its size is proportional to the number of input genes fall under that term, and its color represent its cluster identity. Terms with a similarity score>0.3 are linked by an edge (the thickness of the edge represents the similarity score). The network is visualized with Cytoscape with “force-directed” layout and with edge bundled for clarity. One term from each cluster is selected to have its term description shown as label. […]
In general terms: Immunoblotting shows a protein as a band on a membrane.

A further assay has as its system Mll3/4 KO mESCs. The assay can be described thus: CellTiter-Glo luminescent cell viability assay in WT and Mll3/4 KO mESCs. Type of assay: cell-based, mouse. As to conditions: 48 hours. On the procedure: FIG. 3. […] (A) WT and Mll3/4 KO cells were treated with 0-2.5 μM lometrexol (LTX)−/+50 hypoxanthine (HPX) for 48 hours. CellTiter-Glo® luminescent cell viability assay was performed to determine the percentage of inhibition under these conditions. (B) WT and KO cells were treated with 0.3 μM LTX−/+50 μM HPX for 48 hours, and cells were harvested for RNA-seq. Differential gene expression analyses were performed with indicated comparisons. (C) Principal component analysis of RNA-seq in (B). (D) Hierarchical clustering heatmap showing differentially expressed genes in KO cells in comparison with WT cells.
FIG. 10. Mll3/4 KO mESCs are more sensitive to purine synthesis inhibition. (A-B) WT and Mll3/4 KO cells were treated with 0-2.5 μM lometrexol (LTX) (A) or 0-5 methotrexate (MTX) (B) for 48 hours. CellTiter-Glo® luminescent cell viability assay was performed to determine the percentage of inhibition under these conditions with three different Mll3/4 KO clones included. (C) WT and Mll3/4 KO cells were treated with 0-40 μM SHIINI for 48 hours. MTT cell viability assay was performed to determine the percentage of inhibition under these conditions with three different Mll3/4 KO clones included.
In general terms: ATP-based viability assays read luminescence as a measure of living cells.

In another assay the test system is HT55 (MLL4 WT) xenograft. The assay can be described thus: HT55 subcutaneous xenograft in nude mice. Type of assay: in vivo. On the procedure: FIG. 20. Lometrexol application in MLL4 mutant tumors in the xenograft mouse models. (A-D) Tumor development after inoculation of 4×10^6 of HT55 cells into the nude mice. Mice with HT55 subcutaneous (sc) tumor were either treated with vehicle (DMSO, n=9) or LTX (15 mg/kg, n=9) daily for 7 days. (A) Growth plots for sc tumors in each treatment group were shown. Tumor volumes (mm3) show mean and upper SD. (B) Dot plot representation of sc tumor volume in mice at day 18 post-tumor cell injection. […] (C) Photographs of nude mice (upper) and sc tumor taken from these mice (lower) in which HT55 cells were inoculated into the right flank. (D) Animal survival at the indicated days after inoculation. Log-rank test was used for comparisons between DMSO and LTX treatment. (E-H) Tumor development after inoculation of 4×10^6 of HCT116 cells into the nude mice. […]
Six-week-old female athymic mice (nu/nu genotype, BALB/c background) were purchased from Envigo (Indianapolis, IN, USA) and housed under aseptic conditions. […] The tumor sizes were measured on alternate days and the mice were euthanized when the tumor size reached 1000 mm^3. […]
For in vivo study, the Kaplan-Meier estimator and Prism software were used to generate and analyze survival plots. Differences between survival plots were calculated using a log-rank test. […]

Structures are written as SMILES.

Consider `Nc1nc2c(c(=O)[nH]1)C[C@@H](CCc1ccc(C(=O)N[C@@H](CCC(=O)O)C(=O)O)cc1)CN2` [lometrexol, (2S)-2-[[4-[2-[(6R)-2-amino-4-oxo-5,6,7,8-tetrahydro-3H-pyrido[2,3-d]pyrimidin-6-yl]ethyl]benzoyl]amino]pentanedioic acid], for which the “cell cycle markers H3 Ser10-p, CDT1, CyclinB1 (western blot)” value in assay [1] is “significant downregulation of histone H3 Serine10 phosphorylation (H3 Ser10-p), CDT1 and CyclinB1 was observed only in MLL4 mutant cells but not WT cells”. In addition, in the assay on Mll3/4 KO mESCs (LTX 0-2.5 μM, MTX 0-5, three Mll3/4 KO clones), the “sensitivity of Mll3/4 KO cells compared with WT cells (percentage of inhibition of viability)” value is “elevated sensitivity to LTX in Mll3/4 KO cells”. Also, the “rescue of cell growth and/or viability inhibition by hypoxanthine” value in the assay on Mll3/4 KO mESCs (LTX 0-2.5 μM + 50 hypoxanthine (HPX)) is “completely rescued by HPX”. Besides, the “sc tumor volume at day 18 post-tumor cell injection, DMSO vs LTX (unpaired t-test)” value in the assay on HT55 (MLL4 WT) xenograft (LTX 15 mg/kg daily for 7 days) was “not statistically significant”. In addition, in the assay with HT55 (MLL4 WT) xenograft (LTX 15 mg/kg daily for 7 days vs DMSO), the tumor growth result is “almost completely resistant to LTX”.
